# Assay results taken from patent publication US7910750B2, “Artemisinin (qinghaosu) derivatives, their preparation methods and their use, and pharmaceutical compositions containing the same” (Shanghai Institute of Materia Medica, Chinese Academy of …, priority 2005, dated 2011).
# How the values were obtained:
# B lymphocyte = assay: Lymphocyte proliferation test, B lymphocyte proliferation response induced by LPS ([3H]-thymidine); format: cell-based, mouse; settings: mouse spleen cells, LPS, 48 hours; read-out: Inhibiting activity of B lymphocyte proliferation response induced by LPS IC50
# Protocol: 3. After incubated in 5% CO2 incubator at 37° C. for 48 hours, 0.5 μCi [^3H]-thymidine (25 μL/well) was added into each well 7-8 hours before the termination of the incubation. 4.
# [1] = tested on: BALB/c mouse spleen cells; assay: Lymphocytotoxicity test (MTT); format: cell-based; settings: mouse spleen cells, 48 hours, read-out: Lymphocytotoxicity CC50
# Protocol: A. Lymphocytotoxicity Test
# 1. BALB/c mice were killed by cervical dislocation, and their spleens were removed aseptically. A single spleen cell suspension was prepared and cell debris and clumps were removed.
# 2. 80 μL cell suspension, 40 μL testing sample, 40 μL medium containing 10% FBS were added into 96 well plate; for the control group, 80 μL medium was added the total volume was 160 μL, and blank control group was set.
# 3. After incubated in 5% CO2 incubator at 37° C. for 48 hours, 16 μL MTT (5 mg/mL) reagent was added into each well 6-7 hours before the termination of the incubation.
# T lymphocyte = assay: Lymphocyte proliferation test, T lymphocyte proliferation response induced by ConA ([3H]-thymidine); format: cell-based, mouse; settings: mouse spleen cells, ConA, 48 hours; read-out: Inhibiting activity of T lymphocyte proliferation response induced by ConA IC50
# Protocol: B. Lymphocyte Proliferation Test […] […] 3. After incubated in 5% CO2 incubator at 37° C. for 48 hours, 0.5 μCi [^3H]-thymidine (25 μL/well) was added into each well 7-8 hours before the termination of the incubation. 4.
Compound,IC50 (B lymphocyte) [µM],CC50 [1] [µM],IC50 (T lymphocyte) [µM]
"CC(C(=O)O)c1ccc(OC2OC3OC4(C)CCC5C(C)CCC(C2C)C35OO4)cc1 (stereo not drawn) [compound 22, 2-[4-(12β-artemisininoxy)phenyl] propanoic acid]",8.6,59.6,3.6
"COc1ccccc1OC(=O)C(C)c1ccc(OC2OC3OC4(C)CCC5C(C)CCC(C2C)C35OO4)cc1 (stereo not drawn) [compound 23, o-methoxy-phenyl 2-[4-(12β-artemisininoxy)phenyl] propionate]",0.0947,5.33,0.527
"CCOC(=O)C(C)Oc1ccc(OC2OC3OC4(C)CCC5C(C)CCC(C2C)C35OO4)cc1 (stereo not drawn) [compound 24, ethyl 2-[4-(12β-artemisininoxy)phenoxy] propionate]",0.85,17.6,0.26
"CC(Oc1ccc(OC2OC3OC4(C)CCC5C(C)CCC(C2C)C35OO4)cc1)C(=O)O (stereo not drawn) [compound 25, 2-[4-(12β-artemisininoxy)phenoxy] propanoic acid]",0.86,24.3,7.27
"COc1ccccc1OC(=O)C(C)Oc1ccc(OC2OC3OC4(C)CCC5C(C)CCC(C2C)C35OO4)cc1 (stereo not drawn) [compound 26, o-methoxy-phenyl 2-[4-(12β-artemisininoxy)phenoxy] propionate]",0.27,39.1,2.33
"COc1ccccc1OC(=O)C(C)Oc1cccc(OC2OC3OC4(C)CCC5C(C)CCC(C2C)C35OO4)c1 (stereo not drawn) [compound 27, o-methoxy-phenyl 2-[3-(12β-Artemisininoxy)phenoxy] propionate]",0.57,2.99,4.12
"CCOC(=O)C(C)Oc1cccc(OC2OC3OC4(C)CCC5C(C)CCC(C2C)C35OO4)c1 (stereo not drawn) [compound 28, ethyl 2-[3-(12α-artemisininoxy)phenoxy] propionate]",0.56,2.99,3.59
"CC(Oc1cccc(OC2OC3OC4(C)CCC5C(C)CCC(C2C)C35OO4)c1)C(=O)O (stereo not drawn) [compound 29, 2-[3-(12α-artemisininoxy)phenoxy] propanoic acid]",0.74,35.1,8.6
"COc1ccccc1OC(=O)C(C)Oc1cccc(OC2OC3OC4(C)CCC5C(C)CCC(C2C)C35OO4)c1 (stereo not drawn) [compound 30, o-methoxy-phenyl 2-[3-(12α-artemisininoxy)phenoxy] propionate]",0.82,8.23,5.73
